Data reported in patent US20230092163A1, “COMPOUNDS AND COMPOSITIONS FOR TREATING CONDITIONS ASSOCIATED WITH STING ACTIVITY” (IFM Due, Inc., priority 2019, published 2023).

Biological target: STING (Homo sapiens, UniProt Q86WV6, G230A/H232R/R293Q/R71H)
Experiment: STING reporter assay: THP1-Dual KO-IFNAR2 cells stimulated with 2′3′cGAMP, luciferase reporter activity
Format: cell-based
Conditions: 15 μM 2′3′cGAMP, 24h, class symbols
Description: STING pathway activation by the compounds described herein were measured using THP1-Dual™ cells (KO-IFNAR2).
THP1-Dual™ KO-IFNAR2 Cells (obtained from invivogen) were maintained in RPMI, 10% FCS, 5 ml P/S, 2 mM L-glut, 10 mM Hepes, and 1 mM sodium pyruvate. Compounds were spotted in empty 384 well tissue culture plates (Greiner 781182) by Echo for a final concentration of 0.0017-100 μM. Cells were plated into the TC plates at 40 μL per well, 2×10E6 cells/mL. For activation with STING ligand, 2′3′cGAMP (MW 718.38, obtained from Invivogen), was prepared in Optimem media.
The following solutions were prepared for each 1×384 plate: • Solution A: 2 mL Optimem with one of the following stimuli: • 60 uL of 10 mM 2′3′cGAMP ->150 μM stock • Solution B: 2 mL Optimem with 60 μL Lipofectamine 2000->Incubate 5 min at RT
2 mL of solution A and 2 ml Solution B was mixed and incubated for 20 min at room temperature (RT). 20 uL of transfection solution (A+B) was added on top of the plated cells, with a final 2′3′cGAMP concentration of 15 μM. The plates were then centrifuged immediately at 340 g for 1 minute, after which they were incubated at 37° C., 5% CO2, >98% humidity for 24h. Luciferase reporter activity was then measured. EC50 values were calculated by using standard methods known in the art.
Luciferase reporter assay: 10 μL of supernatant from the assay was transferred to white 384-plate with flat bottom and squared wells. One pouch of QUANTI-Luc™ Plus was dissolved in 25 mL of water. 100 μL of QLC Stabilizer per 25 mL of QUANTI-Luc™ Plus solution was added. 50 μL of QUANTI-Luc™ Plus/QLC solution per well is then added. Luminescence is measured on a Platereader (e.g., Spectramax I3X (Molecular Devices GF3637001)).
Luciferase reporter activity was then measured. EC50 values were calculated by using standard methods known in the art.

Sequence of STING (Q86WV6 whole entry R71H/G230A/H232R/R293Q): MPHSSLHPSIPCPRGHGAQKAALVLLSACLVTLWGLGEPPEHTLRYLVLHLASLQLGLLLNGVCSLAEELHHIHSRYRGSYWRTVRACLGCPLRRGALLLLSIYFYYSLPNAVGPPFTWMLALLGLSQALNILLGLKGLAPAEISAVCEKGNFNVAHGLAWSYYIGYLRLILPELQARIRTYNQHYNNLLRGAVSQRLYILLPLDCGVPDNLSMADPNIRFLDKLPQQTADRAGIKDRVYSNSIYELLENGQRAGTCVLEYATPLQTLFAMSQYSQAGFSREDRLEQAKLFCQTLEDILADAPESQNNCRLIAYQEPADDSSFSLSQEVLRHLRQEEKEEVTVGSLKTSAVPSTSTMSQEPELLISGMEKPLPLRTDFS

Row | SMILES | EC50
1 | CC(C)c1ccc(-c2nnc(NC(=O)Nc3ccc4cc[nH]c4c3)s2)cc1 [Compound 182] | 0.2 to 1 µM
2 | O=C(NCCc1ccc(OC(F)(F)F)cc1)Nc1ccc2cc[nH]c2c1 [Compound 183] | 0.2 to 1 µM
3 | Cc1ccc(CCNC(=O)Nc2ccc3cc[nH]c3c2)cc1C [Compound 186] | 1 to 5 µM
4 | CCCCCNC(=O)Nc1ccc2cc[nH]c2c1 [Compound 188] | 1 to 5 µM
5 | N#Cc1ccc(OC2CCC(NC(=O)Nc3ccc4cc[nH]c4c3)CC2)cc1 (centres unmarked) [Compound 195] | 1 to 5 µM
6 | O=C(Nc1ccc(C(F)(F)F)cc1)Nc1ccc2c(Br)c[nH]c2c1 [Compound 196] | 0.2 to 1 µM
7 | CN(C)S(=O)(=O)c1cccc(NC(=O)Nc2ccc3cc[nH]c3c2)c1 [Compound 198] | 5 to 100 µM
8 | CCC(NC(=O)Nc1ccc2cc[nH]c2c1)c1cccc(C(F)(F)F)c1 (centres unmarked) [Compound 199] | 1 to 5 µM
9 | O=C(Nc1ccc(S(=O)(=O)C(F)(F)F)cc1)Nc1ccc2cc[nH]c2c1 [Compound 200] | 0.2 to 1 µM
10 | O=C(NCCc1ncc(C(F)(F)F)cc1Cl)Nc1ccc2cc[nH]c2c1 [Compound 201] | 1 to 5 µM
11 | CN(C)S(=O)(=O)c1ccc(NC(=O)Nc2ccc3cc[nH]c3c2)cc1 [Compound 202] | 5 to 100 µM
12 | O=C(Nc1cccc(S(=O)(=O)C(F)(F)F)c1)Nc1ccc2cc[nH]c2c1 [Compound 203] | 1 to 5 µM
13 | O=C(NCCSCc1c(Cl)cccc1Cl)Nc1ccc2cc[nH]c2c1 [Compound 204] | 1 to 5 µM
14 | O=C(NCc1cc(Cl)cc(C(F)(F)F)c1)Nc1ccc2cc[nH]c2c1 [Compound 205] | 0.2 to 1 µM
15 | O=C(NCc1ccc(C(F)(F)F)c(Cl)c1)Nc1ccc2cc[nH]c2c1 [Compound 206] | 1 to 5 µM
16 | O=C(NCc1ccc(Cl)c(C(F)(F)F)c1)Nc1ccc2cc[nH]c2c1 [Compound 207] | 1 to 5 µM
17 | O=C(NCCc1ccc(Br)cc1)Nc1ccc2cc[nH]c2c1 [Compound 208] | 0.2 to 1 µM
18 | O=C(NCCc1c(F)cccc1Cl)Nc1ccc2cc[nH]c2c1 [Compound 209] | 1 to 5 µM
19 | O=C(NCCc1cccc(Cl)c1)Nc1ccc2cc[nH]c2c1 [Compound 210] | 1 to 5 µM
20 | O=C(NCCc1ccccc1Cl)Nc1ccc2cc[nH]c2c1 [Compound 211] | 1 to 5 µM
21 | Cc1ccccc1CCNC(=O)Nc1ccc2cc[nH]c2c1 [Compound 212] | 1 to 5 µM
22 | O=C(Nc1ccc2cc[nH]c2c1)N[C@@H]1C[C@H]1c1ccccc1 [Compound 214] | 1 to 5 µM
23 | CC(C)CCNC(=O)Nc1ccc2cc[nH]c2c1 [Compound 215] | 1 to 5 µM
24 | CC(C)(C)c1cc(NC(=O)Nc2ccc3cc[nH]c3c2)on1 [Compound 217] | 5 to 100 µM

Row | SMILES | EC50
25 | CC[C@H](NC(=O)Nc1ccc2cc[nH]c2c1)c1ccccc1 [Compound 222] | 5 to 100 µM
26 | Cc1ccccc1CNC(=O)Nc1ccc2cc[nH]c2c1 [Compound 224] | 1 to 5 µM
27 | Cc1cccc(CNC(=O)Nc2ccc3cc[nH]c3c2)c1 [Compound 225] | 5 to 100 µM
28 | O=C(Nc1ccc(Cl)c(F)c1)Nc1ccc2cc[nH]c2c1 [Compound 226] | 0.2 to 1 µM
29 | Cc1cc(NC(=O)Nc2ccc3cc[nH]c3c2)ccc1C#N [Compound 227] | 0.2 to 1 µM
30 | O=C(Nc1cccc(OC(F)F)c1)Nc1ccc2cc[nH]c2c1 [Compound 228] | 1 to 5 µM
31 | O=C(Nc1cccc(S(F)(F)(F)(F)F)c1)Nc1ccc2cc[nH]c2c1 [Compound 233] | 0.2 to 1 µM
32 | CC(C)c1ccc(NC(=O)Nc2ccc3cc[nH]c3c2)cc1 [Compound 234] | 0.2 to 1 µM
33 | CCCCCCCCCCCCCCCCNC(=O)Nc1ccc2cc[nH]c2c1 [Compound 235] | 0.2 to 1 µM
34 | CCCCCCCCCCCCCCNC(=O)Nc1ccc2cc[nH]c2c1 [Compound 236] | 0.2 to 1 µM
35 | CCCCCCCCc1ccc(NC(=O)Nc2ccc3cc[nH]c3c2)cc1 [Compound 237] | 0.2 to 1 µM
36 | O=C(Nc1ccc(C2CC(F)(F)C2)c(F)c1)Nc1ccc2cc[nH]c2c1 [Compound 240] | 0.2 to 1 µM
37 | O=C(Nc1ccc(C(F)(F)F)cc1)Nc1ccc2c(F)c[nH]c2c1 [Compound 242, 3-(3-fluoro-1H-indol-6-yl)-1-[4-(trifluoromethyl)phenyl]urea] | 0.2 to 1 µM
38 | O=C(Nc1ccc2cc[nH]c2c1)NC1CCC2(CCCCC2)OC1 (centres unmarked) [Compound 243] | 5 to 100 µM
39 | O=C(Nc1ccc(C(F)(F)F)c(Cl)c1)Nc1ccc2cc[nH]c2c1 [Compound 244] | 0.2 to 1 µM
40 | N#Cc1cc(NC(=O)Nc2ccc(C(F)(F)F)cc2)cc2[nH]ccc12 [Compound 245] | 0.04 to 0.2 µM
41 | O=C(Nc1ccc(C(F)(F)F)cc1)Nc1cc(F)c2cc[nH]c2c1 [Compound 246] | 0.2 to 1 µM
42 | O=C(Nc1ccc(N2CCC(F)(F)CC2)nc1)Nc1ccc2cc[nH]c2c1 [Compound 247] | 1 to 5 µM
43 | O=C(Nc1ccc(OC2CC(F)(F)C2)nc1)Nc1ccc2cc[nH]c2c1 [Compound 248] | 0.2 to 1 µM
44 | O=C(Nc1ccc2cc[nH]c2c1)Nc1ccc(N2CCC(F)(F)CC2)cn1 [Compound 249] | 1 to 5 µM
45 | O=C(Nc1ccnc(C(F)(F)F)c1)Nc1ccc2cc[nH]c2c1 [Compound 250] | 1 to 5 µM
46 | O=C(Nc1ccc(C(F)(F)F)cc1)Nc1cc(Cl)c2cc[nH]c2c1 [Compound 251] | 0.04 to 0.2 µM
47 | O=C(Nc1cc(F)cc(C(F)(F)F)c1)Nc1ccc2cc[nH]c2c1 [Compound 252] | 0.04 to 0.2 µM
48 | O=C(Nc1ccc(C(F)(F)F)c(F)c1)Nc1ccc2cc[nH]c2c1 [Compound 253] | 0.04 to 0.2 µM

Same assay, conditions: 15 μM 2′3′cGAMP, 24h, numeric bounds

Row | SMILES | EC50
49 | O=C(NCCc1ccccc1Br)Nc1ccc2cc[nH]c2c1 [Compound 184] | > 30 µM
50 | Cc1cc(CNC(=O)Nc2ccc3cc[nH]c3c2)nn1C [Compound 185] | > 30 µM
51 | O=C(NCCc1ccccc1)Nc1ccc2cc[nH]c2c1 [Compound 187] | > 30 µM
52 | Cn1cc(NC(=O)Nc2ccc3cc[nH]c3c2)cn1 [Compound 189] | > 30 µM
53 | O=C(Nc1ccc2cc[nH]c2c1)Nc1ccon1 [Compound 190] | > 30 µM
54 | O=C(Nc1ccc2cc[nH]c2c1)Nc1ccno1 [Compound 191] | > 30 µM
55 | Cc1ccc(CNC(=O)Nc2ccc3cc[nH]c3c2)cc1 [Compound 192] | > 30 µM
56 | N#Cc1cc(F)cc(NC(=O)Nc2ccc3cc[nH]c3c2)c1 [Compound 193] | > 30 µM
57 | O=C(Nc1ccc2cc[nH]c2c1)Nc1ccccc1Cl [Compound 194] | > 30 µM
58 | Cn1cc(-c2cc(NC(=O)Nc3ccc(C(F)(F)F)cc3)cc3[nH]ccc23)cn1 [Compound 197] | > 30 µM
59 | CC(CNC(=O)Nc1ccc2cc[nH]c2c1)c1ccccc1 (centres unmarked) [Compound 213] | > 30 µM
60 | O=C(NCC1CCC1)Nc1ccc2cc[nH]c2c1 [Compound 216] | > 30 µM
61 | CC(C)(C)n1cc(NC(=O)Nc2ccc3cc[nH]c3c2)cn1 [Compound 218] | > 30 µM
62 | O=C(NCc1cnccn1)Nc1ccc2cc[nH]c2c1 [Compound 219] | > 30 µM
63 | O=C(Nc1ccc2cc[nH]c2c1)Nc1cnccn1 [Compound 220] | > 30 µM
64 | O=C(NCc1ccc(F)c(F)c1)Nc1ccc2cc[nH]c2c1 [Compound 221] | > 30 µM
65 | Cc1ccc(CNC(=O)Nc2ccc3cc[nH]c3c2)cc1C [Compound 223] | > 30 µM
66 | CCc1ccccc1NC(=O)Nc1ccc2cc[nH]c2c1 [Compound 229] | > 30 µM
67 | O=C(Nc1ccc2cc[nH]c2c1)Nc1ccccc1F [Compound 230] | > 30 µM
68 | Cc1ccccc1NC(=O)Nc1ccc2cc[nH]c2c1 [Compound 231] | > 30 µM
